Assay results taken from patent US20250002450A1, “CATIONIC STEROID COMPOUNDS, METHOD OF OBTAINING THEREOF, FORMULATIONS COMPRISING THEREOF AND THEIR USES” (UNIVERSIDADE DO PORTO, priority 2021, published 2025).
Converted amounts (≈) assume the structure as drawn. Where two headings read alike, the source gives them in different places.

Columns and labels:
Test in all cases: Antifungal MIC/MLC (broth microdilution)
[1] = system: C. glabrata DSY565; type: cell-based
Method: (§1) The antifungal activity of compound 1 was evaluated for a wide range of fungal species, covering yeasts and filamentous fungi, including dermatophytes. […] This antimicrobial effect was fungicidal, with minimal lethal concentrations (MLC) being equal to, or one or two-fold higher than the respective MIC. Twenty-three fungal strains were used in this study, including reference strains and clinical isolates of yeasts and filamentous fungi. Yeast strains included reference strains (ATCC—American Type Culture Collection and CECT—Colección Española de Cultivos Tipo) and clinical isolates: C. albicans ATCC 10231, Candida krusei ATCC 6258, C. albicans H37, C. albicans FF172, C. albicans FF176, C. albicans DSY294, C. albicans DSY296, C. glabrata DSY562, C. glabrata DSY565 and Cryptococcus neoformans CECT 1078. Filamentous fungi included Aspergillus fumigatus ATCC 240305, A. fumigatus C111, A. niger ATCC 16404, A. flavus F44, Fusarium solani FF125, F. oxysporum FF115, and dermatophytes Trichophyton rubrum FF5, T. mentagrophytes FF7, Microscoporum canis FF1 and Nannizzia gypsea FF3 (formerly Microsporum gypseum) and a species of genera Mucor, Lichetheimia and Scedosporium. Saprolegnia parasitica CBS 223.65, a reference strain of an oomycete fish pathogen, was also included. All microorganisms were kept in Sabouraud Dextrose Broth (SDB: BioMérieux, Marcy L'Etoile, France) plus glycerol (20%) at −80° C. The strains were kept in Sabouraud Dextrose Agar (SDA: BioMérieux, Marcy L'Etoile, France) slants and were sub-cultured in SDA before each test. S. parasitica was kept in Corn Meal Agar plates (CMA: BBL™ Corn Meal Agar, BD, Le Pont-de-Claix, France) and was sub-cultured in CMA before each experiment. C. albicans H37, was kindly provided by Cidilia Pina Vaz (CHSJ, Porto, Portugal) and C. albicans DSY294, C. albicans DSY296, C. glabrata DSY562, C. glabrata DSY565 were kindly provided by D. Sanglard (University of Lausanne, Switzerland). A stock solution of compound 1 (10 mg/mL), was prepared in dimethyl sulfoxide (DMSO 99%: Alfa Aesar, Kandel, Germany), kept at −20 degrees C., and freshly diluted in the appropriate culture media before each assay. In all experiments, in-test concentrations of DMSO were kept below 2%. Fluconazole (Alfa Aesar, Ward Hill, MA, USA) was tested as commercial antifungal.
(§2) Antifungal activity was evaluated by determining the MIC of compound 1 by the broth microdilution method, according to CLSI guidelines (reference documents M27-A3 for yeasts and M38-A2 for filamentous fungi). Briefly, cell or spore suspensions were prepared in RPMI-1640 broth medium (Biochrom, Berlin, Germany) buffered with 3-(N-morpholino)propane sulfonic acid (MOPS) (Sigma-Aldrich, St. Louis, MO, USA) (henceforth referred to as RPMI) from fresh cultures of the different strains of fungi. For yeasts, the inoculum was adjusted to 0.5-2.5×10^3 CFU/mL. For filamentous fungi, the inoculum was adjusted to 1-3×10^3 CFU/mL for dermatophytes, and 0.4-5×10^4 CFU/mL for all other strains. […] Sterility and growth controls were included in each assay. The 96-well flat-bottomed untreated polystyrene microtiter plates which were incubated for 48 h at 35° C., with the exception of Lichetheimia spp. which was incubated at 25° C. for 48 h, and the dermatophyte strains, which incubated for 5-7 days at 25° C. […] Voriconazole (kindly provided by Pfizer Ldt., UK) MIC for C. krusei ATCC 6258 was used as quality control and the assays were validated when the results obtained were within the recommended limits. The minimal lethal concentration (MLC) was determined by spreading 20 μL of culture collected from wells showing no visible growth on SDA plates. The MLC was determined as the lowest concentration showing complete growth inhibition after 48 h at 35 degrees C., 48 h at 25 degrees C. (Lichetheimia spp.) or 5-7 days at 25 degrees C. (dermatophytes). At least two independent assays were performed for all tested strains.

[2] = system: A. niger ATCC 16404; type: cell-based
Method: as §1, §2

[3] = system: Mucor spp.; type: cell-based
Method: as §1, §2

[4] = system: Scedosporium spp.; type: cell-based
Method: as §1, §2

[5] = system: C. glabrata DSY562; type: cell-based
Method: as §1, §2

[6] = system: Fusarium oxysporum FF115; type: cell-based
Method: as §1, §2

[7] = system: T. mentagrophytes FF7; type: cell-based
Method: as §1, §2

[8] = system: A. flavus F44; type: cell-based
Method: as §1, §2

[9] = system: Fusarium solani FF125; type: cell-based
Method: as §1, §2

[10] = system: Lichtheimia spp.; type: cell-based
Method: as §1, §2

[11] = system: Cryptococcus neoformans CECT 1078; type: cell-based
Method: as §1, §2

[12] = system: Aspergillus fumigatus ATCC 204305; type: cell-based
Method: as §1, §2

[13] = system: A. fumigatus C111; type: cell-based, Aspergillus fumigatus; conditions: A. fumigatus C111, resistant to azoles
Method: as §1
Antifungal activity was evaluated by determining the MIC of compound 1 by the broth microdilution method, according to CLSI guidelines (reference documents M27-A3 for yeasts and M38-A2 for filamentous fungi). […] The minimal lethal concentration (MLC) was determined by spreading 20 μL of culture collected from wells showing no visible growth on SDA plates. The MLC was determined as the lowest concentration showing complete growth inhibition after 48 h at 35 degrees C., 48 h at 25 degrees C. […]

[14] = C. glabrata DSY565, resistant to fluconazole or azoles
[15] = A. niger ATCC 16404, intrinsically resistant to fluconazole
[16] = Mucor spp., intrinsically resistant to fluconazole
[17] = Fusarium oxysporum FF115, intrinsically resistant to fluconazole
[18] = A. flavus F44, intrinsically resistant to fluconazole
[19] = Fusarium solani FF125, intrinsically resistant to fluconazole
[20] = Lichtheimia spp., intrinsically resistant to fluconazole
[21] = Aspergillus fumigatus ATCC 204305, intrinsically resistant to fluconazole

SMILES	MLC [1, 14]	MLC [2, 15]	MLC [3, 16]	MLC [4]	MLC [5]	MLC [6, 17]	MLC [7]	MLC [8, 18]	MLC [9, 19]	MLC [10, 20]	MLC [11]	MLC [12, 21]	MLC [13]	other results
OC(Cn1cncn1)(Cn1cncn1)c1ccc(F)cc1F [Fluconazole, reference compound]	>128 µg/mL	>128 µg/mL	>128 µg/mL	16 µg/mL (≈ 52.2 µM)	>128 µg/mL	>128 µg/mL	32 µg/mL (≈ 104 µM)	>128 µg/mL	>128 µg/mL	>128 µg/mL	>32 µg/mL	>128 µg/mL	>128 µg/mL	MIC ([1]; Nakaseomyces glabratus, DSY565): 128 µg/mL (≈ 418 µM); MIC ([2]; Aspergillus niger, ATCC16404, read-out: MIC): ≥ 128 µg/mL; MIC ([3]; Mucor, read-out: MIC): > 128 µg/mL; MIC ([4]; read-out: MIC): 4 µg/mL (≈ 13.1 µM); MIC ([5]; Nakaseomyces glabratus, read-out: MIC): 4 µg/mL (≈ 13.1 µM); MIC ([6]; Fusarium oxysporum, FF115, read-out: MIC): 64 µg/mL (≈ 209 µM); MIC ([7]; Trichophyton mentagrophytes, read-out: MIC): 8 µg/mL (≈ 26.1 µM); MIC ([8]; Aspergillus flavus, F44, read-out: MIC): 128 µg/mL (≈ 418 µM); MIC ([9]; Fusarium solani, FF125, read-out: MIC): ≥ 128 µg/mL; MIC ([10]; Lichtheimia, read-out: MIC): 64 µg/mL (≈ 209 µM); MIC ([11]; CECT1078, read-out: MIC): 8 µg/mL (≈ 26.1 µM); MIC ([12]; Aspergillus fumigatus, ATCC204305, read-out: MIC): ≥ 128 µg/mL; MIC ([13]; Aspergillus fumigatus, read-out: MIC): ≥ 128 µg/mL
C[C@H](CCC(=O)NCCN)[C@H]1CC[C@H]2[C@@H]3CC[C@@H]4C[C@H](O)CC[C@]4(C)[C@H]3C[C@H](O)[C@]12C [Compound 1, (R)—N-(2-aminoethyl)-4-((3R,5R,8R,9S,10S,12S,13R,14S,17R)-3,12-dihydroxy-10,13-dimethylhexadecahydro-1H-cyclopenta[a]phenanthren-17-yl) pentanamida]	64 µg/mL (≈ 147 µM)	128 µg/mL (≈ 294 µM)	64 µg/mL (≈ 147 µM)	128 µg/mL (≈ 294 µM)	64 µg/mL (≈ 147 µM)	≥128 µg/mL	64 µg/mL (≈ 147 µM)	>128 µg/mL	>128 µg/mL	>128 µg/mL	64 µg/mL (≈ 147 µM)	≥128 µg/mL	>128 µg/mL	MIC [1, 14]: 64 µg/mL (≈ 147 µM); MIC [2, 15]: 64 µg/mL (≈ 147 µM); MIC [3, 16]: 64 µg/mL (≈ 147 µM); MIC [4]: 64 µg/mL (≈ 147 µM); MIC [5]: 64 µg/mL (≈ 147 µM); MIC [6, 17]: 128 µg/mL (≈ 294 µM); MIC [7]: 32 µg/mL (≈ 73.6 µM); MIC [8, 18]: ≥128 µg/mL; MIC [9, 19]: 64 µg/mL (≈ 147 µM); MIC [10, 20]: 64 µg/mL (≈ 147 µM); MIC [11]: 32 µg/mL (≈ 73.6 µM); MIC [12, 21]: 128 µg/mL (≈ 294 µM); MIC [13]: 128 µg/mL (≈ 294 µM)
